What was measured:
Assay type in all cases: functional
A549 [1] = assay: Growth inhibition of Homo sapiens (human) A549 cells at 10^-5 mol/l after 72 hr by MTT assay; conditions: A549, 72 h, read-out: GI
A549 [2] = assay: Growth inhibition of Homo sapiens (human) A549 cells at 10^-4 mol/l after 72 hr by MTT assay; conditions: A549, 72 h, read-out: GI
P388 [3] = assay: Growth inhibition of Mus musculus (mouse) P388 cells at 10^-4 mol/l after 72 hr by MTT assay; conditions: P388, 72 h, read-out: GI
P388 [4] = assay: Growth inhibition of Mus musculus (mouse) P388 cells at 10^-5 mol/l after 72 hr by MTT assay; conditions: P388, 72 h, read-out: GI
P388 [5] = assay: Growth inhibition of Mus musculus (mouse) P388 cells at 10^-7 mol/l after 72 hr by MTT assay; conditions: P388, 72 h, read-out: GI
A549 [6] = assay: Growth inhibition of Homo sapiens (human) A549 cells at 10^-7 mol/l after 72 hr by MTT assay; conditions: A549, 72 h, read-out: GI
A549 [7] = assay: Growth inhibition of Homo sapiens (human) A549 cells at 10^-6 mol/l after 72 hr by MTT assay; conditions: A549, 72 h, read-out: GI
P388 [8] = assay: Growth inhibition of Mus musculus (mouse) P388 cells at 10^-6 mol/l after 72 hr by MTT assay; conditions: P388, 72 h, read-out: GI
A549 [9] = assay: Growth inhibition of Homo sapiens (human) A549 cells at 10^-8 mol/l after 72 hr by MTT assay; conditions: A549, 72 h, read-out: GI
P388 [10] = assay: Growth inhibition of Mus musculus (mouse) P388 cells at 10^-8 mol/l after 72 hr by MTT assay; conditions: P388, 72 h, read-out: GI

COc1cc([C@@H]2c3cc4c(cc3[C@@H](OC(=O)c3cccnc3Cl)[C@H]3COC(=O)[C@H]23)OCO4)cc(OC)c1O [4-O-DEMETHYLEPIPODOPHYLLOTOXINYL-2'-CHLORONICOTINATE]
inhibition of growth at 10 µM (A549 [1]): 78.1% | inhibition of growth at 100 µM (A549 [2]): 92.5% | inhibition of growth at 100 µM (P388 [3]): 100% | inhibition of growth at 10 µM (P388 [4]): 84.7% | inhibition of growth at 0.1 µM (P388 [5]): 12.8% | inhibition of growth at 0.1 µM (A549 [6]): 62.5% | inhibition of growth at 1 µM (A549 [7]): 69.8% | inhibition of growth at 1 µM (P388 [8]): 72.3% | inhibition of growth at 0.01 µM (A549 [9]): 56.6% | inhibition of growth at 0.01 µM (P388 [10]): 9.1%

COc1cc([C@@H]2c3cc4c(cc3[C@@H](OC(=O)c3cncc(Br)c3)[C@H]3COC(=O)[C@H]23)OCO4)cc(OC)c1O [4-O-DEMETHYLEPIPODOPHYLLOTOXINYL-5'-BROMONICOTINATE]
inhibition of growth at 10 µM (A549 [1]): 82% | inhibition of growth at 100 µM (A549 [2]): 87.3% | inhibition of growth at 100 µM (P388 [3]): 100% | inhibition of growth at 10 µM (P388 [4]): 87.4% | inhibition of growth at 0.1 µM (P388 [5]): 63.5% | inhibition of growth at 0.1 µM (A549 [6]): 74.6% | inhibition of growth at 1 µM (A549 [7]): 78.4% | inhibition of growth at 1 µM (P388 [8]): 66.1% | inhibition of growth at 0.01 µM (A549 [9]): 71% | inhibition of growth at 0.01 µM (P388 [10]): 2%

COc1cc([C@@H]2c3cc4c(cc3[C@@H](OC(=O)c3ccc(Cl)nc3)[C@H]3COC(=O)[C@H]23)OCO4)cc(OC)c1O [4-O-DEMETHYLEPIPODOPHYLLOTOXINYL-6'-CHLORONICOTINATE]
inhibition of growth at 10 µM (A549 [1]): 93.9% | inhibition of growth at 100 µM (A549 [2]): 85.4% | inhibition of growth at 100 µM (P388 [3]): 100% | inhibition of growth at 10 µM (P388 [4]): 81.1% | inhibition of growth at 0.1 µM (P388 [5]): 28.4% | inhibition of growth at 0.1 µM (A549 [6]): 70.7% | inhibition of growth at 1 µM (A549 [7]): 72.5% | inhibition of growth at 1 µM (P388 [8]): 73.4% | inhibition of growth at 0.01 µM (A549 [9]): 59.3% | inhibition of growth at 0.01 µM (P388 [10]): 20.2%

COc1cc([C@@H]2c3cc4c(cc3[C@@H](OC(=O)c3ccncc3)[C@H]3COC(=O)[C@H]23)OCO4)cc(OC)c1O [4-O-DEMETHYLEPIPODOPHYLLOTOXINYL-ISONICOTINATE]
inhibition of growth at 10 µM (A549 [1]): 67.8% | inhibition of growth at 100 µM (A549 [2]): 95.1% | inhibition of growth at 100 µM (P388 [3]): 100% | inhibition of growth at 10 µM (P388 [4]): 86.9% | inhibition of growth at 0.1 µM (P388 [5]): 53.5% | inhibition of growth at 0.1 µM (A549 [6]): 66.1% | inhibition of growth at 1 µM (A549 [7]): 66.4% | inhibition of growth at 1 µM (P388 [8]): 76.5% | inhibition of growth at 0.01 µM (A549 [9]): 54% | inhibition of growth at 0.01 µM (P388 [10]): 19.8%

COc1cc([C@@H]2c3cc4c(cc3[C@@H](OC(=O)c3cccnc3)[C@H]3COC(=O)[C@H]23)OCO4)cc(OC)c1O [4-O-DEMETHYLEPIPODOPHYLLOTOXINYL-NICOTINATE]
inhibition of growth at 10 µM (A549 [1]): 79.9% | inhibition of growth at 100 µM (A549 [2]): 91.4% | inhibition of growth at 100 µM (P388 [3]): 100% | inhibition of growth at 10 µM (P388 [4]): 87.9% | inhibition of growth at 0.1 µM (P388 [5]): 71.4% | inhibition of growth at 0.1 µM (A549 [6]): 72.6% | inhibition of growth at 1 µM (A549 [7]): 74% | inhibition of growth at 1 µM (P388 [8]): 72.1% | inhibition of growth at 0.01 µM (A549 [9]): 71.9% | inhibition of growth at 0.01 µM (P388 [10]): 4.4%

COc1cc([C@@H]2c3cc4c(cc3[C@@H](OC(=O)c3ccccn3)[C@H]3COC(=O)[C@H]23)OCO4)cc(OC)c1O [4-O-DEMETHYLEPIPODOPHYLLOTOXINYL-PICOLINATE]
inhibition of growth at 10 µM (A549 [1]): 78.8% | inhibition of growth at 100 µM (A549 [2]): 91.6% | inhibition of growth at 100 µM (P388 [3]): 100% | inhibition of growth at 10 µM (P388 [4]): 88.6% | inhibition of growth at 0.1 µM (P388 [5]): 68% | inhibition of growth at 0.1 µM (A549 [6]): 56% | inhibition of growth at 1 µM (A549 [7]): 73.7% | inhibition of growth at 1 µM (P388 [8]): 73.5% | inhibition of growth at 0.01 µM (A549 [9]): 53.7% | inhibition of growth at 0.01 µM (P388 [10]): 39.7%

COc1cc([C@@H]2c3cc4c(cc3[C@H](OC(=O)c3cccnc3Cl)[C@H]3COC(=O)[C@H]23)OCO4)cc(OC)c1OC [4-O-PODOPHYLLOTOXINYL-2'-CHLORONICOTINATE]
inhibition of growth at 10 µM (A549 [1]): 82.5% | inhibition of growth at 100 µM (A549 [2]): 86.6% | inhibition of growth at 100 µM (P388 [3]): 87.3% | inhibition of growth at 10 µM (P388 [4]): 85.8% | inhibition of growth at 0.1 µM (P388 [5]): 84.7% | inhibition of growth at 0.1 µM (A549 [6]): 80.4% | inhibition of growth at 1 µM (A549 [7]): 81.3% | inhibition of growth at 1 µM (P388 [8]): 85% | inhibition of growth at 0.01 µM (A549 [9]): 79.5% | inhibition of growth at 0.01 µM (P388 [10]): 80.6%

COc1cc([C@@H]2c3cc4c(cc3[C@H](OC(=O)c3cncc(Br)c3)[C@H]3COC(=O)[C@H]23)OCO4)cc(OC)c1OC [4-O-PODOPHYLLOTOXINYL-5'-BROMONICOTINATE]
inhibition of growth at 10 µM (A549 [1]): 84.7% | inhibition of growth at 100 µM (A549 [2]): 91.1% | inhibition of growth at 100 µM (P388 [3]): 97.7% | inhibition of growth at 10 µM (P388 [4]): 87.4% | inhibition of growth at 0.1 µM (P388 [5]): 82.8% | inhibition of growth at 0.1 µM (A549 [6]): 80.9% | inhibition of growth at 1 µM (A549 [7]): 82.7% | inhibition of growth at 1 µM (P388 [8]): 85% | inhibition of growth at 0.01 µM (A549 [9]): 77.3% | inhibition of growth at 0.01 µM (P388 [10]): 80.6%

COc1cc([C@@H]2c3cc4c(cc3[C@H](OC(=O)c3ccc(Cl)nc3)[C@H]3COC(=O)[C@H]23)OCO4)cc(OC)c1OC [4-O-PODOPHYLLOTOXINYL-6'-CHLORONICOTINATE]
inhibition of growth at 10 µM (A549 [1]): 87% | inhibition of growth at 100 µM (A549 [2]): 87.9% | inhibition of growth at 100 µM (P388 [3]): 92.1% | inhibition of growth at 10 µM (P388 [4]): 88.3% | inhibition of growth at 0.1 µM (P388 [5]): 84.3% | inhibition of growth at 0.1 µM (A549 [6]): 83% | inhibition of growth at 1 µM (A549 [7]): 85.9% | inhibition of growth at 1 µM (P388 [8]): 85% | inhibition of growth at 0.01 µM (A549 [9]): 81.5% | inhibition of growth at 0.01 µM (P388 [10]): 80.1%

COc1cc([C@@H]2c3cc4c(cc3[C@H](OC(=O)c3ccncc3)[C@H]3COC(=O)[C@H]23)OCO4)cc(OC)c1OC [4-O-PODOPHYLLOTOXINYL-ISONICOTINATE]
inhibition of growth at 10 µM (A549 [1]): 84.4% | inhibition of growth at 100 µM (A549 [2]): 89.2% | inhibition of growth at 100 µM (P388 [3]): 89% | inhibition of growth at 10 µM (P388 [4]): 85.1% | inhibition of growth at 0.1 µM (P388 [5]): 84.8% | inhibition of growth at 0.1 µM (A549 [6]): 81.8% | inhibition of growth at 1 µM (A549 [7]): 82.6% | inhibition of growth at 1 µM (P388 [8]): 84.8% | inhibition of growth at 0.01 µM (A549 [9]): 81.4% | inhibition of growth at 0.01 µM (P388 [10]): 83.8%

COc1cc([C@@H]2c3cc4c(cc3[C@H](OC(=O)c3cccnc3)[C@H]3COC(=O)[C@H]23)OCO4)cc(OC)c1OC [4-O-PODOPHYLLOTOXINYL-NICOTINATE]
inhibition of growth at 10 µM (A549 [1]): 84.9% | inhibition of growth at 100 µM (A549 [2]): 87.5% | inhibition of growth at 100 µM (P388 [3]): 87.5% | inhibition of growth at 10 µM (P388 [4]): 84.8% | inhibition of growth at 0.1 µM (P388 [5]): 83.8% | inhibition of growth at 0.1 µM (A549 [6]): 82.2% | inhibition of growth at 1 µM (A549 [7]): 82.8% | inhibition of growth at 1 µM (P388 [8]): 84.1% | inhibition of growth at 0.01 µM (A549 [9]): 81% | inhibition of growth at 0.01 µM (P388 [10]): 83.4%

COc1cc([C@@H]2c3cc4c(cc3[C@H](OC(=O)c3ccccn3)[C@H]3COC(=O)[C@H]23)OCO4)cc(OC)c1OC [4-O-PODOPHYLLOTOXINYL-PICOLINATE]
inhibition of growth at 10 µM (A549 [1]): 84% | inhibition of growth at 100 µM (A549 [2]): 89.2% | inhibition of growth at 100 µM (P388 [3]): 87.7% | inhibition of growth at 10 µM (P388 [4]): 87% | inhibition of growth at 0.1 µM (P388 [5]): 85.5% | inhibition of growth at 0.1 µM (A549 [6]): 81.8% | inhibition of growth at 1 µM (A549 [7]): 82.3% | inhibition of growth at 1 µM (P388 [8]): 86% | inhibition of growth at 0.01 µM (A549 [9]): 81.4% | inhibition of growth at 0.01 µM (P388 [10]): 85.4%

COc1cc([C@@H]2c3cc4c(cc3[C@@H](O[C@@H]3O[C@@H]5CO[C@@H](C)O[C@H]5[C@H](O)[C@H]3O)[C@H]3COC(=O)[C@H]23)OCO4)cc(OC)c1O [ETOPOSIDE]
inhibition of growth at 10 µM (A549 [1]): 50.7% | inhibition of growth at 100 µM (A549 [2]): 97.5% | inhibition of growth at 100 µM (P388 [3]): 99.2% | inhibition of growth at 10 µM (P388 [4]): 70.6% | inhibition of growth at 0.1 µM (P388 [5]): 6% | inhibition of growth at 0.1 µM (A549 [6]): 0% | inhibition of growth at 1 µM (A549 [7]): 45% | inhibition of growth at 1 µM (P388 [8]): 25.5% | inhibition of growth at 0.01 µM (A549 [9]): 0% | inhibition of growth at 0.01 µM (P388 [10]): 1.8%

Source: ChEMBL document CHEMBL3046757, “Design, synthesis, and biological evaluation of novel pyridine acid esters of podophyllotoxin and esters of 4-demethylepipodophyllotoxin” (2007)
